From ChEMBL document CHEMBL3885861, “Open TG-GATES”

Organism: Rattus norvegicus
Experiment: Open TG-GATES - Regimen: Single
Assay type: toxicity, organism-based, Sprague-Dawley
Design: regimen Single, gender Male, age 6 weeks
Conditions: in vivo, iv, route intravenous injection; for Bas / Eos / Fbg / Ht / Lym / MCHC / MCV / Mono / PT / Plat / RBC / Ret / WBC / APTT / Hb / MCH / Neu: tissue Blood; for KIDNEY_L / KIDNEY_R / KIDNEY_TOTAL: tissue Kidney; for LIVER: tissue Liver
[1] = 0 mg/kg, 3 h, dose level Control
[2] = 0 mg/kg, 3 h, tissue Plasma, dose level Control
[3] = 0 mg/kg, 6 h, dose level Control
[4] = 0 mg/kg, 6 h, tissue Plasma, dose level Control
[5] = 0 mg/kg, 9 h, dose level Control
[6] = 0 mg/kg, 9 h, tissue Plasma, dose level Control
[7] = 0 mg/kg, 24 h, dose level Control
[8] = 0 mg/kg, 24 h, tissue Plasma, dose level Control
[9] = 1 mg/kg, 3 h, dose level Middle
[10] = 1 mg/kg, 3 h, tissue Plasma, dose level Middle
[11] = 1 mg/kg, 6 h, dose level Middle
[12] = 1 mg/kg, 6 h, tissue Plasma, dose level Middle

CISPLATIN gave a TERMINAL_BW [1] of 217.6 g, a Bas [1] of 0% and an Eos [1] of 1%. It also gave a Fbg [1] of 292.4 mg/dL, a Ht [1] of 40.6% and a Lym [1] of 82.4%. The MCHC [1] was 32.6%, the MCV [1] was 65.7 fL and the Mono [1] was 2.2%. For the same sequence, the PT [1] was 15.3 s, the Plat [1] was 125.7 x10_4/uL and the RBC [1] was 617.8 x10_4/ul. For the same sequence, the Ret [1] was 6.8%, the WBC [1] was 111 x10_2/uL and the KIDNEY_L [1] was 1 g. The KIDNEY_R [1] was 1 g, the KIDNEY_TOTAL [1] was 1.9 g and the ALP [2] was 1441.2 IU/L. It also gave an ALT [2] of 48.4 IU/L, an AST [2] of 80.6 IU/L and a BUN [2] of 13.6 mg/dL. The CRE [2] was 0.2 mg/dL, the Ca [2] was 11 mg/dL and the DBIL [2] was 0 mg/dL. The IP [2] was 8.7 mg/dL, the K [2] was 4.2 meq/L and the LDH [2] was 188.6 IU/L. For the same sequence, the PL [2] was 126.6 mg/dL, the RALB [2] was 2.9 g/dL and the TBIL [2] was 0.02 mg/dL. It also gave a TC [2] of 71 mg/dL, a TG [2] of 54.8 mg/dL and a TP [2] of 5.4 g/dL. The gamma-GTP [2] was 2 IU/L, the TERMINAL_BW [3] was 210.4 g and the APTT [3] was 22.8 s. It also gave a Bas [3] of 0%, an Eos [3] of 1% and a Fbg [3] of 275.4 mg/dL. It also gave a Hb [3] of 13 g/dL, a Ht [3] of 39.7% and a Lym [3] of 83.4%. The MCH [3] was 21.1 pg, the MCHC [3] was 32.7% and the MCV [3] was 64.3 fL. It also gave a Mono [3] of 3%, a Plat [3] of 115.2 x10_4/uL and an RBC [3] of 617.6 x10_4/ul. For the same sequence, the Ret [3] was 6.5%, the WBC [3] was 152.3 x10_2/uL and the KIDNEY_L [3] was 0.9 g. The KIDNEY_R [3] was 1 g, the KIDNEY_TOTAL [3] was 1.9 g and the LIVER [3] was 9.2 g. It also gave an ALP [4] of 1766.6 IU/L, an ALT [4] of 44 IU/L and an AST [4] of 76.8 IU/L. The BUN [4] was 12.6 mg/dL, the CRE [4] was 0.2 mg/dL and the DBIL [4] was 0 mg/dL. The IP [4] was 9.5 mg/dL, the K [4] was 4.5 meq/L and the LDH [4] was 165.8 IU/L. The Na [4] was 139.2 meq/L, the PL [4] was 128.6 mg/dL and the RALB [4] was 2.8 g/dL. The TBIL [4] was 0 mg/dL, the TC [4] was 67.2 mg/dL and the TG [4] was 81.6 mg/dL. It also gave a TP [4] of 5.2 g/dL, a gamma-GTP [4] of 1.6 IU/L and a TERMINAL_BW [5] of 208.8 g. For the same sequence, the APTT [5] was 24.1 s, the Bas [5] was 0% and the Eos [5] was 0.6%. For the same sequence, the Fbg [5] was 257.6 mg/dL, the Hb [5] was 13 g/dL and the Ht [5] was 39.9%. For the same sequence, the Lym [5] was 79.8%, the MCHC [5] was 32.7% and the MCV [5] was 64 fL. For the same sequence, the Mono [5] was 2.4%, the Neu [5] was 16.4% and the Plat [5] was 119.1 x10_4/uL. It also gave an RBC [5] of 623 x10_4/ul, a Ret [5] of 5.8% and a WBC [5] of 90.6 x10_2/uL. It also gave a KIDNEY_L [5] of 0.9 g, a KIDNEY_R [5] of 1 g and a KIDNEY_TOTAL [5] of 1.9 g. For the same sequence, the LIVER [5] was 8.9 g, the ALP [6] was 1337.6 IU/L and the ALT [6] was 39.8 IU/L. For the same sequence, the AST [6] was 74.2 IU/L, the BUN [6] was 12.8 mg/dL and the CRE [6] was 0.1 mg/dL. It also gave a DBIL [6] of 0 mg/dL, a GLC [6] of 184.8 mg/dL and a K [6] of 4.2 meq/L. It also gave an LDH [6] of 139.8 IU/L, a Na [6] of 139.8 meq/L and a PL [6] of 130.2 mg/dL. For the same sequence, the RALB [6] was 2.9 g/dL, the TBIL [6] was 0.02 mg/dL and the TP [6] was 5.4 g/dL. It also gave a gamma-GTP [6] of 1.6 IU/L, a TERMINAL_BW [7] of 232.1 g and an APTT [7] of 22.3 s. For the same sequence, the Bas [7] was 0%, the Eos [7] was 1% and the Fbg [7] was 282.6 mg/dL. For the same sequence, the Ht [7] was 40.2%, the Lym [7] was 81.2% and the MCH [7] was 21.1 pg. The MCV [7] was 65 fL, the Mono [7] was 2.8% and the Plat [7] was 123 x10_4/uL. The RBC [7] was 617.6 x10_4/ul, the Ret [7] was 6.3% and the WBC [7] was 84 x10_2/uL. For the same sequence, the KIDNEY_L [7] was 1 g, the KIDNEY_R [7] was 1.1 g and the KIDNEY_TOTAL [7] was 2.1 g. It also gave an ALP [8] of 1431.4 IU/L, an ALT [8] of 47.4 IU/L and an AST [8] of 74.8 IU/L. For the same sequence, the BUN [8] was 17.2 mg/dL, the CRE [8] was 0.2 mg/dL and the DBIL [8] was 0 mg/dL. The IP [8] was 7.7 mg/dL, the K [8] was 4.4 meq/L and the LDH [8] was 177.8 IU/L. The PL [8] was 150.4 mg/dL, the RALB [8] was 3 g/dL and the TBIL [8] was 0.014 mg/dL. For the same sequence, the TC [8] was 80.2 mg/dL, the TG [8] was 98.4 mg/dL and the TP [8] was 5.6 g/dL. It also gave a gamma-GTP [8] of 1.6 IU/L, a TERMINAL_BW [9] of 215.5 g and an APTT [9] of 22.6 s. It also gave a Bas [9] of 0%, an Eos [9] of 1% and a Fbg [9] of 275.8 mg/dL. It also gave a Hb [9] of 12.7 g/dL, a Ht [9] of 38.9% and a Lym [9] of 75%. For the same sequence, the MCH [9] was 21.1 pg, the MCHC [9] was 32.7% and the MCV [9] was 64.5 fL. The Mono [9] was 2.6%, the Plat [9] was 127.7 x10_4/uL and the RBC [9] was 602.2 x10_4/ul. For the same sequence, the Ret [9] was 6.6%, the WBC [9] was 89.5 x10_2/uL and the KIDNEY_L [9] was 1 g. The KIDNEY_R [9] was 1 g, the KIDNEY_TOTAL [9] was 2 g and the LIVER [9] was 10 g. It also gave an ALP [10] of 1623.4 IU/L, an ALT [10] of 38.8 IU/L and a BUN [10] of 13 mg/dL. It also gave a CRE [10] of 0.2 mg/dL, a DBIL [10] of 0 mg/dL and a GLC [10] of 175.4 mg/dL. For the same sequence, the IP [10] was 8.9 mg/dL, the K [10] was 4.2 meq/L and the LDH [10] was 152.2 IU/L. For the same sequence, the Na [10] was 139.6 meq/L, the PL [10] was 132.4 mg/dL and the RALB [10] was 2.8 g/dL. For the same sequence, the TBIL [10] was 0.014 mg/dL, the TC [10] was 75 mg/dL and the TG [10] was 80.6 mg/dL. It also gave a TP [10] of 5.2 g/dL, a gamma-GTP [10] of 1.4 IU/L and a TERMINAL_BW [11] of 216 g. The APTT [11] was 22.5 s, the Bas [11] was 0% and the Eos [11] was 1%. It also gave a Fbg [11] of 275 mg/dL, a Hb [11] of 13 g/dL and a Ht [11] of 39.9%. For the same sequence, the Lym [11] was 77%, the MCHC [11] was 32.6% and the MCV [11] was 63.4 fL. It also gave a Mono [11] of 3%, a Neu [11] of 17.8% and a PT [11] of 15.4 s. It also gave a Plat [11] of 128.4 x10_4/uL, an RBC [11] of 629.4 x10_4/ul and a Ret [11] of 6.1%. The WBC [11] was 106.4 x10_2/uL, the KIDNEY_L [11] was 1 g and the KIDNEY_R [11] was 1 g. The KIDNEY_TOTAL [11] was 2 g, the LIVER [11] was 9.4 g and the ALP [12] was 1530.2 IU/L. It also gave an ALT [12] of 42.8 IU/L, an AST [12] of 75.8 IU/L and a CRE [12] of 0.1 mg/dL. It also gave a DBIL [12] of 0 mg/dL, an IP [12] of 9.6 mg/dL and a K [12] of 4.4 meq/L. For the same sequence, the LDH [12] was 159.6 IU/L, the Na [12] was 138.6 meq/L and the PL [12] was 135.6 mg/dL. The RALB [12] was 2.9 g/dL, the TBIL [12] was 0 mg/dL and the TC [12] was 73.2 mg/dL. It also gave a TG [12] of 92.2 mg/dL, a TP [12] of 5.4 g/dL and a gamma-GTP [12] of 2 IU/L.
